Molecules are shown by their SMILES. Where only a bound is given, the exact number is not on record here.

This is an account of results in patent US6486143B2, “6-amino- or 6-hydrazino-sulphonyl-3-quinolynyl-phosphonic acid compounds” (Les Laboratoires Servier, priority 2000, dated 2002).

For the molecule `O=c1[nH]c2cc(C(F)(F)F)c(S(=O)(=O)N3CCCCC3)cc2cc1P(=O)(O)O` [Example 32, 2-Oxo-6-(1-piperidylsulphonyl)-7-(trifluoromethyl)-1,2-dihydro-3-quinolylphosphonic Acid], the melting point (in general, the temperature, or range, at which the solid turns liquid) was > 260 °C.
